Experimental data reported in patent US10287305B2, “Substituted piperidine compound and use thereof” (Takeda Pharmaceutical Company Limited, priority 2016, dated 2019).

Biological target: human orexin type 2 receptor (hOX2R) (Homo sapiens (Human), UniProt O43614)
Test: Measurement of orexin type 2 receptor agonist activity (Experimental Example 2-1, FLIPR TETRA, intracellular Ca2+)
Type: cell-based
Details: CHO dhfr- cells expressing hOX2R; for Emax at 30 µM: value at 30 uM concentration, orexin B as full agonist = 100%; for Emax: read-out: Emax (%)
[1] = agonist activity, 10 nM human orexin B = 100%

Chain of human orexin type 2 receptor (hOX2R) (O43614 whole entry): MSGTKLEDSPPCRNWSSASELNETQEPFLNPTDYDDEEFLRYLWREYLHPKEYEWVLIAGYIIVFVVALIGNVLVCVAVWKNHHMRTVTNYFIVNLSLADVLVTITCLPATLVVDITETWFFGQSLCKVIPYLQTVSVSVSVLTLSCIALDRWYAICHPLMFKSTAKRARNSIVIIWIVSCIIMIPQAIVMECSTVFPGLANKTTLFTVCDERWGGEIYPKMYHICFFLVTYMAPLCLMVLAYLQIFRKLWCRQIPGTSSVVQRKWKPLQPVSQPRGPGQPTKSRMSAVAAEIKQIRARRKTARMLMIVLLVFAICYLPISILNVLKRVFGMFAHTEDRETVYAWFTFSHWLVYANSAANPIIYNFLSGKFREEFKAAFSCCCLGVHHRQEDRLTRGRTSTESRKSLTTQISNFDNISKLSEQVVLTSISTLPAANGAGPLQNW

SMILES | EC50 [1] [nM] | Emax at 30 µM [%] | EC50 (FLIPR TETRA, Fluo-4AM) [nM] | Emax (FLIPR TETRA, Fluo-4AM) [%] | Emax (%) (FLIPR TETRA, Fluo-4AM)
CC(=O)N1CCC[C@H](NS(C)(=O)=O)[C@@H]1CO[C@H]1CC[C@@H](C2CCCCC2)CC1 [Example 71, N-(cis-1-acetyl-2-(((1s,4s)-1,1′-bi(cyclohexyl)-4-yloxy)methyl)piperidin-3-yl)methanesulfonamide] | 4300 | 83 |  |  | 
CC(C)[C@H]1CC[C@@H](OC[C@H]2[C@@H](NS(C)(=O)=O)CCCN2C(=O)COc2ccn(C)n2)CC1 [Example 84, N-((2R,3S)-2-(((cis-4-isopropylcyclohexyl)oxy)methyl)-1-(((1-methyl-1H-pyrazol-3-yl)oxy)acetyl)piperidin-3-yl)methanesulfonamide] | 840 | 98 |  |  | 
CC(C)[C@H]1CC[C@@H](OC[C@H]2[C@@H](NS(C)(=O)=O)CCCN2C(=O)C2CCC(=O)N2)CC1 (stereo partly drawn) [Example 87, N-(cis-2-(((cis-4-isopropylcyclohexyl)oxy)methyl)-1-(5-oxoprolyl)piperidin-3-yl)methanesulfonamide] | 4900 | 82 |  |  | 
CC(C)[C@H]1CC[C@@H](OC[C@H]2[C@@H](NS(C)(=O)=O)CCCN2C(=O)C2CC(=O)C2)CC1 [Example 91, N-((2R,3S)-2-(((cis-4-isopropylcyclohexyl)oxy)methyl)-1-((3-oxocyclobutyl)carbonyl)piperidin-3-yl)methanesulfonamide] | 39 | 89 |  |  | 
CC(C)[C@H]1CC[C@@H](OC[C@H]2[C@@H](NS(C)(=O)=O)CCCN2C(=O)C2CC(O)C2)CC1 (stereo partly drawn) [Example 92, N-((2R,3S)-1-((3-hydroxycyclobutyl)carbonyl)-2-(((cis-4-isopropylcyclohexyl)oxy)methyl)piperidin-3-yl)methanesulfona] | 370 | 92 |  |  | 
CNC(=O)N1CCC[C@H](NS(C)(=O)=O)[C@@H]1CO[C@H]1CC[C@@H](C(C)C)CC1 [Example 102, (2R,3S)-2-(((cis-4-isopropylcyclohexyl)oxy)methyl)-N-methyl-3-((methylsulfonyl)amino)piperidine-1-carboxamide] | 1.2 | 101 |  |  | 
[2H]C1C([2H])[C@]([2H])(C(C)C)C([2H])C([2H])[C@]1([2H])OC[C@H]1[C@@H](NS(C)(=O)=O)CCCN1C(C)=O (stereo partly drawn) [Example 103, N-(cis-1-acetyl-2-(((cis-4-isopropyl(1,2,3,4,5,6-d6)cyclohexyl)oxy)methyl)piperidin-3-yl)methanesulfonamide] | 170 | 98 |  |  | 
[2H]C1C([2H])[C@]([2H])(C(C)C)C([2H])C([2H])[C@]1([2H])OC[C@H]1[C@@H](NS(C)(=O)=O)CCCN1C(=O)NCC (stereo partly drawn) [Example 104, cis-N-ethyl-2-(((cis-4-isopropyl(1,2,3,4,5,6-d6)cyclohexyl)oxy)methyl)-3-((methylsulfonyl)amino)piperidine-1-carboxamide] | 2.2 | 100 |  |  | 
CC(=O)N1CCC[C@H](NS(C)(=O)=O)[C@@H]1CO[C@H]1CC[C@@H](c2cccc(F)c2)CC1 [Example 147, N-((2R,3S)-1-acetyl-2-(((cis-4-(3-fluorophenyl)cyclohexyl)oxy)methyl)piperidin-3-yl)methanesulfonamide] |  |  | 10 | 100 | 
CCNC(=O)N1CCC[C@H](NS(C)(=O)=O)[C@@H]1CO[C@H]1CC[C@@H](c2cccc(F)c2)CC1 [Example 148, (2R,3S)-N-ethyl-2-(((cis-4-(3-fluorophenyl)cyclohexyl)oxy)methyl)-3-((methylsulfonyl)amino)piperidine-1-carboxamide] |  |  | 0.053 | 103 | 
CS(=O)(=O)N[C@H]1CCCN(C(=O)[C@H]2CCOC2)[C@H]1CO[C@H]1CC[C@@H](c2ccccc2)CC1 [Example 149, N-(cis-2-(((cis-4-phenylcyclohexyl)oxy)methyl)-1-((3S)-tetrahydrofuran-3-ylcarbonyl)piperidin-3-yl)methanesulfonamide] |  |  | 25 | 100 | 
CS(=O)(=O)N[C@H]1CCCN(C(=O)[C@@H]2CCOC2)[C@H]1CO[C@H]1CC[C@@H](c2ccccc2)CC1 [Example 150, N-(cis-2-(((cis-4-phenylcyclohexyl)oxy)methyl)-1-((3R)-tetrahydrofuran-3-ylcarbonyl)piperidin-3-yl)methanesulfonamide] |  |  | 30 | 99 | 
CS(=O)(=O)N[C@H]1CCCN(C(=O)CC#N)[C@H]1CO[C@H]1CC[C@@H](c2ccccc2)CC1 [Example 180, N-((2R,3S)-1-(cyanoacetyl)-2-(((cis-4-phenylcyclohexyl)oxy)methyl)piperidin-3-yl)methanesulfonamide] |  |  | 17 | 106 | 
CS(=O)(=O)CC(=O)N1CCC[C@H](NS(C)(=O)=O)[C@@H]1CO[C@H]1CC[C@@H](c2ccccc2)CC1 [Example 181, N-((2R,3S)-1-((methylsulfonyl)acetyl)-2-(((cis-4-phenylcyclohexyl)oxy)methyl)piperidin-3-yl)methanesulfonamide] |  |  |  | 89 | 
CCC(=O)N1CCC[C@H](NS(C)(=O)=O)[C@@H]1CO[C@H]1CC[C@@H](c2ccccc2)CC1 [Example 182, N-((2R,3S)-2-(((cis-4-phenylcyclohexyl)oxy)methyl)-1-propionylpiperidin-3-yl)methanesulfonamide] |  |  | 2.3 | 92 | 
CS(=O)(=O)N[C@H]1CCCN(C(=O)[C@H]2CCC(=O)O2)[C@H]1CO[C@H]1CC[C@@H](c2ccccc2)CC1 [Example 183, N-((2R,3S)-1-(((2R)-5-oxotetrahydrofuran-2-yl)carbonyl)-2-(((cis-4-phenylcyclohexyl)oxy)methyl)piperidin-3-yl)methanesulfonamide] |  |  | 40 | 94 | 
CS(=O)(=O)N[C@H]1CCCN(C(=O)[C@@H]2CCC(=O)O2)[C@H]1CO[C@H]1CC[C@@H](c2ccccc2)CC1 [Example 184, N-((2R,3S)-1-(((2S)-5-oxotetrahydrofuran-2-yl)carbonyl)-2-(((cis-4-phenylcyclohexyl)oxy)methyl)piperidin-3-yl)methanesulfonamide] |  |  | 9.3 | 93 | 
CS(=O)(=O)N[C@H]1CCCN(C(=O)CO)[C@H]1CO[C@H]1CC[C@@H](c2ccccc2)CC1 [Example 185, N-((2R,3S)-1-glycoloyl-2-(((cis-4-phenylcyclohexyl)oxy)methyl)piperidin-3-yl)methanesulfonamide] |  |  | 21 | 98 | 
CS(=O)(=O)N[C@H]1CCCN(C(=O)C2(C#N)CC2)[C@H]1CO[C@H]1CC[C@@H](c2ccccc2)CC1 [Example 187, N-((2R,3S)-1-((1-cyanocyclopropyl)carbonyl)-2-(((cis-4-phenylcyclohexyl)oxy)methyl)piperidin-3-yl)methanesulfonamide] |  |  | 370 | 93 | 
C[C@H](O)C(=O)N1CCC[C@H](NS(C)(=O)=O)[C@@H]1CO[C@H]1CC[C@@H](c2ccccc2)CC1 [Example 188, N-((2R,3S)-1-((2S)-2-hydroxypropanoyl)-2-(((cis-4-phenylcyclohexyl)oxy)methyl)piperidin-3-yl)methanesulfonamide] |  |  | 23 | 97 | 
[2H]C([2H])([2H])OC(=O)N1CCC[C@H](NS(C)(=O)=O)[C@@H]1CO[C@H]1CC[C@@H](c2ccccc2)CC1 [Example 191, methyl-d3 (2R,3S)-3-((methylsulfonyl)amino)-2-(((cis-4-phenylcyclohexyl)oxy)methyl)piperidine-1-carboxylate] |  |  | 2.9 | 107 | 
COC(=O)N1CCC[C@H](NS(C)(=O)=O)[C@@H]1CO[C@H]1CC[C@@H](c2cccc(F)c2)CC1 [Example 200, methyl (2R,3S)-2-(((cis-4-(3-fluorophenyl)cyclohexyl)oxy)methyl)-3-((methylsulfonyl)amino)piperidine-1-carboxylate] |  |  |  | 95 | 
CS(=O)(=O)N[C@H]1CCCN(C(=O)C2CC2)[C@H]1CO[C@H]1CC[C@@H](c2c(F)cccc2F)CC1 [Example 213, N-((2R,3S)-1-(cyclopropylcarbonyl)-2-(((cis-4-(2,6-difluorophenyl)cyclohexyl)oxy)methyl)piperidin-3-yl)methanesulfonamide] |  |  | 0.44 | 102 | 
CS(=O)(=O)N[C@H]1CCCN(C(=O)C2CC2)[C@H]1CO[C@H]1CC[C@@H](c2cc(F)ccc2F)CC1 [Example 214, N-((2R,3S)-1-(cyclopropylcarbonyl)-2-(((cis-4-(2,5-difluorophenyl)cyclohexyl)oxy)methyl)piperidin-3-yl)methanesulfonamide] |  |  | 1.5 | 105 | 
COC(=O)N1CCC[C@H](NS(C)(=O)=O)[C@@H]1CO[C@H]1CC[C@@H](c2c(F)cccc2F)CC1 [Example 215, methyl (2R,3S)-2-(((cis-4-(2,6-difluorophenyl)cyclohexyl)oxy)methyl)-3-((methylsulfonyl)amino)piperidine-1-carboxylate] |  |  | 2.5 | 105 | 
CC(=O)N1CCC[C@H](NS(C)(=O)=O)[C@@H]1CO[C@H]1CC[C@@H](c2cc(F)ccc2F)CC1 [Example 217, N-((2R,3S)-1-acetyl-2-(((cis-4-(2,5-difluorophenyl)cyclohexyl)oxy)methyl)piperidin-3-yl)methanesulfonamide] |  |  | 13 |  | 110
CS(=O)(=O)N[C@H]1CCCN(C(=O)[C@@H]2C[C@@H]2F)[C@H]1COC1CCN(c2ccccc2F)CC1 [Example 221, N-(cis-1-(((1S,2S)-2-fluorocyclopropyl)carbonyl)-2-(((1-(2-fluorophenyl)piperidin-4-yl)oxy)methyl)piperidin-3-yl)methanesulfonamide] |  |  | 1600 | 96 | 
CS(=O)(=O)N[C@H]1CCCN(C(=O)[C@H]2C[C@@H]2F)[C@H]1COC1CCN(c2ccccc2F)CC1 [Example 222, N-(cis-1-(((1R,2S)-2-fluorocyclopropyl)carbonyl)-2-(((1-(2-fluorophenyl)piperidin-4-yl)oxy)methyl)piperidin-3-yl)methanesulfonamide] |  |  | 2100 | 102 | 
